# Source: patent US20260124311A1, “POLYMER-DRUG CONJUGATES FOR STING PATHWAY ACTIVATION” (Vanderbilt University, priority 2022, published 2026)
# Like-named read-outs stand apart in the source and are kept apart here.
# Tests used:
# [1] = tested on: E0771 murine breast tumors; assay: Therapeutic efficacy in E0771 murine breast tumor model; details: approximately 0.009 μmol drug/mouse every 4 days, 3 treatments
# [2] = E0771 tumor bearing mice, approximately 0.012 μmol diABZI/mouse, organs after 24 hours
# [3] = molecular target: T1, STING (Homo sapiens, UniProt Q86WV6, G230A/H232R/R293Q/R71H); assay: THP1-Dual reporter assay (IRF-luciferase, Quanti-Luc) for activation of STING; format: cell-based; details: for STING activation / interferon production in THP-1 Dual reporter cells, in words: qualitative comparison of dose-response curves
# T1 construct: host or cells: THP1-Dual cells
# Method: Activation of STING. […] Cells were subjected to 10 μg/mL Blasticidin and 100 μg/mL Zeocin for continual selection after every cell passage. […] Reporter cells were seeded at 25,000 cells/well in 100 μL media and treatments were administered in 100 μL of medium.
# [4] = tested on: STING knockout THP1 Dual cell line; assay: STING knockout THP1 Dual cell line reporter assay; format: cell-based, human; details: FIG. 19C-D
# [5] = tested on: IRF and NF-kb pathway; assay: THP-1 Dual reporter assay of IRF and NF-kb pathway activation; format: cell-based, human; details: FIG. 19A-B
# Method: Activation of STING. THP1-Dual cells (InvivoGen) were cultured in Roswell Park Memorial Institute (RPMI) 1640 Medium (Gibco) supplemented with 2 mM L-glutamine, 25 mM HEPES, 10% heat-inactivated fetal bovine serum (HI-FBS; Gibco), 100 U mL^−1, penicillin/100 μg mL^−1, streptomycin (Gibco), and 100 μg/mL Normocin. Cells were subjected to 10 μg/mL Blasticidin and 100 μg/mL Zeocin for continual selection after every cell passage. 96-well plates (REF 655180; Greiner Bio-One) were used for screening agonist activity. Reporter cells were seeded at 25,000 cells/well in 100 μL media and treatments were administered in 100 μL of medium. Results were collected 24 hours after treatment using a Quanti-Luc™ (InvivoGen) assay on cell supernatants following manufacturer's instructions. Luminescence was quantified using a plate reader (Synergy H1 Multi-Mode Microplate Reader; Biotek) after supernatants were transferred to opaque-bottom 96-well plates (REF 655073; Greiner Bio-One).
# [6] = molecular target: T2, recombinant human STING (hSTING; STING isoform 1) (Homo sapiens, UniProt Q86WV6); assay: Isothermal calorimetry (ITC) binding to recombinant human STING
# T2 construct: made in house; host or cells: Escherichia coli (New England Biolabs, T7 Shuffle Express line)
# Method: hSTING Binding Studies. […] Buffer exchange was performed prior to ITC (pH 7.5: PBST, 150 mM NaCl, 3 mM EDTA, 0.05% Tween 20), using Amicon Ultra 4 mL centrifugal filters (Millipore, Etobicoke, Canada). ITC experiments were performed on a TA Instruments Affinity ITC instrument. 24 total injections were performed using the following instrument settings: cell temperature 25° C., reference power 10 μCal/second, initial delay 240 seconds, stirring speed 75 rpm, feedback mode/gain high, and injection volume 2 μL for 10 seconds spaced at 120 second intervals with a filter period of 10 seconds. hSTING was set in the cell at a concentration of 10 μM and a volume of 350 μL. […] Data were analyzed using TA Instruments NanoAnalyze Software.
# [7] = molecular target: T3, Recombinant Mouse Cathepsin B (Mus musculus, UniProt P10605); assay: Cathepsin-B release / enzyme cleavability assay with MALDI-MS; format: biochemical; details: 50 μM substrate, 0.2 μM cathepsin B
# T3 construct: purchased RND Systems
# Method: Enzyme Cleavability Studies. Recombinant Mouse Cathepsin B (RND Systems) was prepared at 50 μM in MES buffer (pH 5.0) upon opening and kept in −80° C. conditions when not in use. To activate the enzyme, Cathepsin B was diluted to 0.2 μM in MES buffer (pH 5.0) containing 1 mM EDTA and 2 mM DTT and placed at 37° C. for 15 minutes. After activation, Cathepsin B was combined with 50 μM of substrate at 37° C. for 37 hours at a total volume of 100 μL. Activity was determined by observing molecular weight shifts in the substrate using matrix assisted laser desorption and ionization mass spectrometry (MALDI-MS). 4 μL of Matrix (20 mg mL^−1 THAP and 20 mg mL^−1 CHCA in dry acetone) was combined with 1 μL of sample from the Cathepsin B activity assay and spotted on a stainless steel MALDI-MS plate (Bruker). After evaporation of matrix, three technical replicates were collected for each spot using FlexControl software (Bruker Daltonics) on a Bruker AutoFlex MALDI-TOF. The laser pulse rate was 1000 Hz and spectra were obtained with a mass window of 600-5000 m/z at high resolution (4.00 GS/s). FlexAnalysis software (Bruker Daltonics) was used to perform unbiased smoothing and obtain baseline spectra for all samples. Spectra were exported to Microsoft Excel and spectra were plotted using MATLAB.
# [8] = molecular target: T4, STING (Mus musculus, UniProt Q3TBT3); assay: Interferon-β sandwich ELISA on isolated primary murine splenocytes; format: cell-based
# T4 construct: from tissue; host or cells: primary splenocytes from spleens of female C57BL/6 mice
# T4 sequence (Q3TBT3 1-378): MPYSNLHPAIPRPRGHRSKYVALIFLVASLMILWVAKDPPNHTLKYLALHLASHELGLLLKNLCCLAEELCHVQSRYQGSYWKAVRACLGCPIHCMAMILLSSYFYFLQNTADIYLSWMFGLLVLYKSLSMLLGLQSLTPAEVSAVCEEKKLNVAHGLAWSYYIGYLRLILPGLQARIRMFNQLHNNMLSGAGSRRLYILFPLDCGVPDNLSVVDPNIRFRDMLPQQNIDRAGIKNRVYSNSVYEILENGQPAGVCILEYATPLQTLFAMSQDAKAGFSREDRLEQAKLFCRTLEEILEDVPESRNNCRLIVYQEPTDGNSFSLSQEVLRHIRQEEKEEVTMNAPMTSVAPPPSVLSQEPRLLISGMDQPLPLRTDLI
# Method: The activity in primary murine splenocytes, which comprises a mixture of different immune cell populations, using ELISA was used to quantify secreted interferon-β (IFN-β), a signature cytokine of STING pathway activity.
# Secretion of Interferon-β (IFN-β) ELISA. […] Cells were centrifuged and resuspended in fresh media at a concentration of 3 million cells per mL. Cells were seeded in a 96-well round bottom plate at 100 μL per well and treatments were administered in 100 μL of medium.
# [9] = tested on: B16.F10 melanoma; details: intravenous, every 3 days, 3 treatments, 0.035 umol diABZI/mouse
# Method: Tumor volume was measured until day 18 when the first tumor reached 1500 mm^3 (FIG. 9E).
# [10] = tested on: THP-1 Dual cells; assay: Cellular uptake by flow cytometry at 37° C. and 4° C.; format: cell-based, human; details: FIG. 22A-B
# Excerpt: To confirm the dependence of cellular uptake on endocytosis, a RAFT polymerization was used to synthesize a fluorescent version of 50 kDa DMA-diABZI (36) in which a small amount of azide propyl methacrylamide (2%) was co-polymerized to allow for covalent conjugation to DBCO-Sulfo-Cy5 dye, yielding compound (37), which had 2 Sulfo-Cy5 molecules per chain. […] Therefore, DMA-diABZI appears to cells via endocytosis where it can activate STING signaling within ˜2 hr.
# [11] = FIG. 5, IRF signaling at 24 hours, read-out: EC50, STING activation in THP-1 Dual reporter cell lines
# [12] = Table 2, FIG. 18A, IRF signaling in THP-1 Dual reporter cells, read-out: EC50 value
# [13] = FIG. 3A, 24 hours, read-out: estimated EC50, IRF signaling in THP1-Dual reporter cells
# [14] = FIG. 3B, 24 hours, read-out: EC50, IFN-β production in primary murine splenocytes (ELISA)
# T2 sequence (Q86WV6 whole entry H232R, canonical isoform): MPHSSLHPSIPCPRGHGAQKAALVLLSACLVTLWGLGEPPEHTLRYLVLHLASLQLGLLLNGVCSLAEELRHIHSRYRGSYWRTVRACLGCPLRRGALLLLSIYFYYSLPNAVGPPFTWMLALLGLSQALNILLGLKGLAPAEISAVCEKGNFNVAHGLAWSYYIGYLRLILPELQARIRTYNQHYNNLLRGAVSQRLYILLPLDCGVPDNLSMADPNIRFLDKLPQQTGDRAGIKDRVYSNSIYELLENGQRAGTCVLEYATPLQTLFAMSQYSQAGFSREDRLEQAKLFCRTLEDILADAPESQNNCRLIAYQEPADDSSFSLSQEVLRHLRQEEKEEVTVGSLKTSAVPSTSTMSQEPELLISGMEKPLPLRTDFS
# T1 sequence (Q86WV6 whole entry R71H/G230A/H232R/R293Q): as the sequence (Q86WV6 whole entry H232R, canonical isoform) above, with R71H, G230A, R293Q counted along it
# T3 sequence (P10605 80-333 limits assumed): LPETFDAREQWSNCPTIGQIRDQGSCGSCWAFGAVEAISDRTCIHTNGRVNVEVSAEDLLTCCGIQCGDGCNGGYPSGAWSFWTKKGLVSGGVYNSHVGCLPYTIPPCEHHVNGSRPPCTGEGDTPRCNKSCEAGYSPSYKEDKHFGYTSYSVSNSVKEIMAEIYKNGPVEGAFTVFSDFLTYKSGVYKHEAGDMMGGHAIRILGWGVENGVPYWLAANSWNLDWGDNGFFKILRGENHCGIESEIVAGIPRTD
compound,measurement,setting,value
25 kDa-poly(dimethylacrylamide-co-azidethylmethacrylate)-graft-diamidobenzimidazole) [25 kDa DMA-g-V/C-diABZI (28)],survival,[1],longer than the control and non-polymer conjugated compound
same,treated mice with complete tumor regression,[1],approximately 20%
same,organ accumulation (biodistribution),[2],"accumulation in the kidney, tumor, and liver"
100 kDa-poly(dimethylacrylamide-co-azidethylmethacrylate)-graft-diamidobenzimidazole) [100 kDa DMA-g-V/C-diABZI (29)],survival,[1],longer than the control and non-polymer conjugated compound
same,treated mice with complete tumor regression,[1],~37.5%
same,organ accumulation (biodistribution),[2],accumulation mainly in the liver and tumor
"C#CCOC(=O)Nc1ccc(COC(=O)NCCCOc2cc(C(N)=O)cc3nc(NC(=O)c4cc(C)nn4CC)n(C/C=C/Cn4c(NC(=O)c5cc(C)nn5CC)nc5cc(C(N)=O)cc(OC)c54)c23)cc1 [Alkyne-PAB-diABZI (4), Alkyne-PAB-diABZI]","STING activation / interferon production in THP-1 Dual reporter cells, in words",[3],decrease in STING activation
"CCn1nc(C)cc1C(=O)Nc1nc2cc(C(N)=O)cc(OC)c2n1C/C=C/Cn1c(NC(=O)c2cc(C)nn2CC)nc2cc(C(N)=O)cc(OCCCNC(=O)CCCCC(=O)N3Cc4ccccc4C#Cc4ccccc43)c21 [diABZI-DBCO (8), diABZI-DBCO]","STING activation / interferon production in THP-1 Dual reporter cells, in words",[3],elicit STING activation
"CCSC(=S)SC(C)(C#N)CCC(=O)NCCCOc1cc(C(N)=O)cc2nc(NC(=O)c3cc(C)nn3CC)n(C/C=C/Cn3c(NC(=O)c4cc(C)nn4CC)nc4cc(C(N)=O)cc(OC)c43)c12 (centres unmarked) [diABZI-ECT (10), diABZI-ECT]",IRF and NF-κβ responses in STING knockout cells,[4],lack of activity
same,EC50,[3]; [11],3.06 nM
same,EC50,[3]; [12],7.21 nM
same,"STING activation / interferon production in THP-1 Dual reporter cells, in words",[3],significantly more potent than diABZI-amine (1)
same,"STING activation / interferon production in THP-1 Dual reporter cells, in words",[3]; listed as 10,nearly identical STING activation
same,IRF and NF-kb pathway activation,[5],both signaling pathways are engaged
"CCn1nc(C)cc1C(=O)Nc1nc2cc(C(N)=O)cc(OC)c2n1C/C=C/Cn1c(NC(=O)c2cc(C)nn2CC)nc2cc(C(N)=O)cc(OCCCNC(=O)CCCCCN3C(=O)C=CC3=O)c21 [diABZI-Mal (2), diABZI-Mal]",Kd,[6],890 ± 547 nM
same,cathepsin B cleavage (molecular weight shift by MALDI-MS),[7],no change in molecular weight
same,EC50,[3]; [13],20.5 nM
same,EC50,[8]; [14],~3.62 nM
"CCSC(=S)SC(C)(C#N)CCC(=O)NCCSSCCC(=O)NCCCOc1cc(C(N)=O)cc2nc(NC(=O)c3cc(C)nn3CC)n(C/C=C/Cn3c(NC(=O)c4cc(C)nn4CC)nc4cc(C(N)=O)cc(OC)c43)c12 (centres unmarked) [diABZI-SS-ECT (11), diABZI-SS-ECT]",EC50,[3]; [11],4.09 nM
same,"STING activation / interferon production in THP-1 Dual reporter cells, in words",[3],significantly more potent than diABZI-amine (1)
"CCn1nc(C)cc1C(=O)Nc1nc2cc(C(N)=O)cc(OC)c2n1C/C=C/Cn1c(NC(=O)c2cc(C)nn2CC)nc2cc(C(N)=O)cc(OCCCNC(=O)OCc3ccc(NC(=O)[C@H](CCCNC(N)=O)NC(=O)[C@@H](NC(=O)CCCCC(=O)N4Cc5ccccc5C#Cc5ccccc54)C(C)C)cc3)c21 [diABZI-V/C-DBCO (9), diABZI-V/C-DBCO]","STING activation / interferon production in THP-1 Dual reporter cells, in words",[3],elicit STING activation
"CCn1nc(C)cc1C(=O)Nc1nc2cc(C(N)=O)cc(OC)c2n1C/C=C/Cn1c(NC(=O)c2cc(C)nn2CC)nc2cc(C(N)=O)cc(OCCCNC(=O)OCc3ccc(NC(=O)[C@H](CCCNC(N)=O)NC(=O)[C@@H](NC(=O)CCCCCN4C(=O)C=CC4=O)C(C)C)cc3)c21 [diABZI-V/C-Mal (3), diABZI-V/C-Mal]",Kd,[6],207 ± 150 nM
same,cathepsin B cleavage (molecular weight shift by MALDI-MS),[7],shift in molecular weight from 1400.8 Da to 801.83 Da
same,EC50,[3]; [13],314 nM
same,EC50,[8]; [14],~3.38 nM
"CCn1nc(C)cc1C(=O)Nc1nc2cc(C(N)=O)cc(OC)c2n1C/C=C/Cn1c(NC(=O)c2cc(C)nn2CC)nc2cc(C(N)=O)cc(OCCCN)c21 [diABZI-amine (1), (E)-7-(3-aminopropoxy)-1-(4-(5-carbamoyl-2-(1-ethyl-3-methyl-1H-pyrazole-5-carboxamido)-7-methoxy-1H-benzo[d]imidazol-1-yl)but-2-en-1-yl)-2-(1-ethyl-3-methyl-1H-pyrazole-5-carboxamido)-1H-benzo[d]imidazole-5-carboxamide]",Kd,[6],70 ± 62 nM
same,tumor growth inhibition,[9],inhibited tumor growth to a comparable degree
same,EC50,[3]; [13],60.9 nM
same,EC50,[3]; [12],78.6 nM
same,EC50,[8],~2.24 nM
"C=C(C)C(=O)OCCSSCCC(=O)NCCCOc1cc(C(N)=O)cc2nc(NC(=O)c3cc(C)nn3CC)n(C/C=C/Cn3c(NC(=O)c4cc(C)nn4CC)nc4cc(C(N)=O)cc(OC)c43)c12 [diABZI-disulfide-methacrylate (15), diABZI-disulfide-methacrylate]","STING activation / interferon production in THP-1 Dual reporter cells, in words",[3],nearly identical STING activation
"C=C(C)C(=O)OCCCCCC(=O)NCCCOc1cc(C(N)=O)cc2nc(NC(=O)c3cc(C)nn3CC)n(C/C=C/Cn3c(NC(=O)c4cc(C)nn4CC)nc4cc(C(N)=O)cc(OC)c43)c12 [diABZI-methacrylate (14), diABZI-methacrylate]","STING activation / interferon production in THP-1 Dual reporter cells, in words",[3],nearly identical STING activation
diABZI(CTA)-SS-poly-DMA (50k) [50 kDa diABZI-SS-DMA (35)],"STING activation / interferon production in THP-1 Dual reporter cells, in words",[3],activated STING in a similar range as the stably linked constructs
diABZI-5k PEG [diABZI-5k PEG (17)],"STING activation / interferon production in THP-1 Dual reporter cells, in words",[3],slightly higher activity
diABZI-20k PEG [diABZI-20k PEG (18)],tumor growth inhibition,[9],inhibited tumor growth to a comparable degree
same,"STING activation / interferon production in THP-1 Dual reporter cells, in words",[3],slightly higher activity
diABZI-DMA-co-AzPMA-Sulfo-Cy5 [sCy5-labeled DMA-diABZI (37)],cellular uptake at 4° C. versus 37° C.,[10],nearly completely abrogated
diABZI-V/C-2k PEG [diABZI-V/C-2k PEG (19)],"STING activation / interferon production in THP-1 Dual reporter cells, in words",[3],active
diABZI-V/C-5k PEG [diABZI-V/C-5k PEG (20)],"STING activation / interferon production in THP-1 Dual reporter cells, in words",[3],active
diABZI-V/C-20k PEG [diABZI-V/C-20k PEG (21)],tumor growth inhibition,[9],inhibited tumor growth to a comparable degree
same,"STING activation / interferon production in THP-1 Dual reporter cells, in words",[3],active
